Measured values published in patent US8586505B2 (SDS Biotech K. K., priority 2009, dated 2013).

What was measured:
Type in all cases: in vivo
Phytophthora infestans = test: whole plant or invertebrate; details: in Solanum lycopersicum, 96 h, read-out: Determination of control effect (preventive value)
Sphaerotheca fuliginea = test: Test of examining control effect on Sphaerotheca fuliginea (potted cucumber plants); details: Podosphaera fuliginea, 336 h; 10% wettable powder adjusted to 125 ppm, 15 ml/pot sprayed on potted cucumber plants one day before spray inoculation; assessed after 14 days in greenhouse; read-out: Determination of control effect (preventive value) on Sphaerotheca fuliginea
Procedure: (§1) Calculation of Preventive Value: Preventive value={(untreated lesion area rate−treated lesion area rate)/untreated lesion area rate}×100
(§2) Using the thus calculated preventive value, the control effect of each compound was determined in accordance with the following standards.
(§3) High control effect: 100%≧preventive value≧60%
(§4) Low control effect: 60%>preventive value≧0%
Using a spray gun, an agent solution prepared by adjusting a 10% wettable powder of each sample compound to 125 ppm (hereinafter referred to as a “sample agent solution”) was sprayed to potted cucumber plants (variety: Sagamihanjiro, 2nd leave stage) in a concentration of 15 ml/pot. One day after the spraying, a conidial suspension of Sphaerotheca fuliginea (conidial concentration: 1.0×10^5 cells/ml) was applied to the plants by spray inoculation. The plants were left in a greenhouse for 14 days, so that they were fully infected with the aforementioned disease. Thereafter, the disease level on each leaf was compared with that on an untreated leaf, and the control effect of each compound was determined in the same manner as in Example 3(1).

[1] = system: Pseudoperonospora cubensis; test: Test of examining control effect on Pseudoperonospora cubensis (potted cucumber plants); details: 96 h, 10% wettable powder adjusted to 125 ppm, 15 ml/pot sprayed on potted cucumber plants one day before spray inoculation, assessed after 1 day wet chamber and 3 days greenhouse, read-out: Determination of control effect (preventive value) on Pseudoperonospora cubensis
Procedure: as §1, §2, §3, §4
Using a spray gun, an agent solution prepared by adjusting a 10% wettable powder of each sample compound to 125 ppm (hereinafter referred to as a “sample agent solution”) was sprayed to potted cucumber plants (variety: Sagamihanjiro, 2.5 leave stage) in a concentration of 15 ml/pot. One day after the spraying, a conidial suspension of Pseudoperonospora cubensis (conidial concentration: 1.0×10^4 cells/ml) was applied to the plants by spray inoculation. After completion of the inoculation, the plants were left at 21° C. under wet chamber conditions for 1 day, and were then left in a greenhouse for 3 days, so that they were fully infected with the aforementioned disease. Thereafter, the disease level on each leaf was compared with that on an untreated leaf, and the control effect of each compound was determined in the same manner as in Example 3(1).

SMILES	pest or weed control at 125 ppm (Phytophthora infestans)	pest or weed control at 125 µg/mL (Sphaerotheca fuliginea)	pest or weed control at 125 µg/mL [1]
COCc1ccc(F)cc1C#CCCNc1ncnc2ccccc12 [compound 142]	60 to 100%	60 to 100%	60 to 100%
COCc1ccc(Cl)cc1C#CCCNc1ncnc2ccccc12 [compound 143]	60 to 100%	60 to 100%	60 to 100%
COCc1ccc(C)cc1C#CCCNc1ncnc2ccccc12 [compound 144]	60 to 100%	60 to 100%	60 to 100%
COCc1cc(C)ccc1C#CCCNc1ncnc2ccccc12 [compound 145]	60 to 100%	60 to 100%	60 to 100%
N#CCc1ccccc1C#CCCNc1ncnc2ccccc12 [compound 147]	60 to 100%	60 to 100%	60 to 100%
COCOCc1ccccc1C#CCCNc1ncnc2ccccc12 [compound 148]	60 to 100%	60 to 100%	60 to 100%
COC(OC)c1ccccc1C#CCCNc1ncnc2ccccc12 [compound 149]	0 to 60%	0 to 60%	0 to 60%
CCOC(OCC)c1ccccc1C#CCCNc1ncnc2ccccc12 [compound 150]	0 to 60%	0 to 60%	0 to 60%
CCOC(OCC)c1ccc(C#CCCNc2ncnc3ccccc23)cc1 [compound 151]	60 to 100%	60 to 100%	60 to 100%
CSCc1ccccc1C#CCCNc1ncnc2ccccc12 [compound 152]	0 to 60%	0 to 60%	60 to 100%
CCOCc1ccccc1C#CCCNc1ncnc2ccccc12 [compound 153]	60 to 100%	0 to 60%	60 to 100%
CC(C)OCc1ccccc1C#CCCNc1ncnc2ccccc12 [compound 154]	60 to 100%	60 to 100%	60 to 100%
C(#Cc1ccccc1C1OCCO1)CCNc1ncnc2ccccc12 [compound 155]	0 to 60%	0 to 60%	60 to 100%
C(#Cc1ccc2c(c1)CCO2)CCNc1ncnc2ccccc12 [compound 157]	0 to 60%	60 to 100%	60 to 100%
OCCc1ccccc1C#CCCNc1ncnc2ccccc12 [compound 158]	0 to 60%	60 to 100%	60 to 100%
CN(C)c1ccc(C#CCCNc2ncnc3ccccc23)cc1 [compound 159]	0 to 60%	60 to 100%	60 to 100%
CN(C)S(=O)(=O)c1ccccc1C#CCCNc1ncnc2ccccc12 [compound 161]	60 to 100%	0 to 60%	60 to 100%
CS(=O)(=O)Cc1ccccc1C#CCCNc1ncnc2ccccc12 [compound 162]	0 to 60%	0 to 60%	60 to 100%
Fc1ccc(F)c(C#CCCNc2ncnc3ccccc23)c1 [compound 163]	60 to 100%	60 to 100%	60 to 100%
Cc1ccc(F)cc1C#CCCNc1ncnc2ccccc12 [compound 167]	0 to 60%	60 to 100%	60 to 100%
Fc1ccc(C(F)(F)F)c(C#CCCNc2ncnc3ccccc23)c1 [compound 168]	60 to 100%	60 to 100%	60 to 100%
Fc1ccc(C#CCCNc2ncnc3ccccc23)c(C(F)(F)F)c1 [compound 169]	60 to 100%	60 to 100%	60 to 100%
N#Cc1cc(F)ccc1C#CCCNc1ncnc2ccccc12 [compound 170]	60 to 100%	60 to 100%	60 to 100%
FC(F)(F)c1ccc(C#CCCNc2ncnc3ccccc23)cc1Cl [compound 177]	60 to 100%	60 to 100%	60 to 100%

SMILES	pest or weed control at 125 ppm (Phytophthora infestans)	pest or weed control at 125 µg/mL (Sphaerotheca fuliginea)	pest or weed control at 125 µg/mL [1]
FC(F)(F)c1cc(Cl)ccc1C#CCCNc1ncnc2ccccc12 [compound 178]	60 to 100%	60 to 100%	60 to 100%
Cc1ccc(C#CCCNc2ncnc3ccccc23)c(C)c1 [compound 180]	60 to 100%	60 to 100%	60 to 100%
Cc1cc(C)c(C#CCCNc2ncnc3ccccc23)c(C)c1 [compound 181]	0 to 60%	60 to 100%	60 to 100%
FC(F)(F)c1ccc(C#CCCNc2ncnc3ccccc23)c(Cl)c1 [compound 182]	0 to 60%	60 to 100%	60 to 100%
COc1ccc2cc(C#CCCNc3ncnc4ccccc34)ccc2c1 [compound 184]	60 to 100%	60 to 100%	60 to 100%
COCc1ccc2ccccc2c1C#CCCNc1ncnc2ccccc12 [compound 185]	0 to 60%	0 to 60%	60 to 100%
Cc1ccc(Oc2ccc(C#CCCNc3ncnc4ccccc34)cc2)cc1 [compound 186]	0 to 60%	60 to 100%	0 to 60%
N#Cc1cc(C(F)(F)F)ccc1C#CCCNc1ncnc2ccccc12 [compound 187]	0 to 60%	0 to 60%	60 to 100%
C(#Cc1ccc2ccccc2n1)CCNc1ncnc2ccccc12 [compound 188]	0 to 60%	0 to 60%	60 to 100%
C(#Cc1ccnc2ccccc12)CCNc1ncnc2ccccc12 [compound 189]	0 to 60%	60 to 100%	60 to 100%
C(#Cc1ccc2ncccc2c1)CCNc1ncnc2ccccc12 [compound 190]	0 to 60%	0 to 60%	60 to 100%
C(#Cc1cccc2ncccc12)CCNc1ncnc2ccccc12 [compound 191]	0 to 60%	0 to 60%	60 to 100%
C(#Cc1cncc2ccccc12)CCNc1ncnc2ccccc12 [compound 192]	0 to 60%	0 to 60%	60 to 100%
Fc1ccc(C#CCCNc2ncnc3ccccc23)cn1 [compound 194]	0 to 60%	60 to 100%	60 to 100%
Clc1cc(C#CCCNc2ncnc3ccccc23)ccn1 [compound 196]	0 to 60%	60 to 100%	60 to 100%
FC(F)(F)c1ccc(C#CCCNc2ncnc3ccccc23)nc1 [compound 197]	0 to 60%	60 to 100%	60 to 100%
COc1cc(C#CCCNc2ncnc3ccccc23)ccn1 [compound 199]	60 to 100%	60 to 100%	60 to 100%
Cc1cccc(C#CCCNc2ncnc3ccccc23)n1 [compound 200]	60 to 100%	60 to 100%	60 to 100%
Cn1cc(C#CCCNc2ncnc3ccccc23)ccc1=O [compound 203]	0 to 60%	0 to 60%	60 to 100%
C(#Cc1cccs1)CCNc1ncnc2ccccc12 [compound 204]	60 to 100%	60 to 100%	60 to 100%
C(#Cc1ccsc1)CCNc1ncnc2ccccc12 [compound 205]	60 to 100%	60 to 100%	60 to 100%
Cc1ccc(C#CCCNc2ncnc3ccccc23)s1 [compound 206]	60 to 100%	0 to 60%	60 to 100%
COCc1ccsc1C#CCCNc1ncnc2ccccc12 [compound 207]	60 to 100%	60 to 100%	60 to 100%
